Measurements from paper PMC3792487 (Science (New York, N.Y.), 2012).

Target: dihydropteroate synthase (DHPS, FolP1) (Mycobacterium tuberculosis, UniProt P9WND1)
Type: biochemical

dihydropteroate synthase (DHPS, FolP1), sequence (P9WND1 whole entry): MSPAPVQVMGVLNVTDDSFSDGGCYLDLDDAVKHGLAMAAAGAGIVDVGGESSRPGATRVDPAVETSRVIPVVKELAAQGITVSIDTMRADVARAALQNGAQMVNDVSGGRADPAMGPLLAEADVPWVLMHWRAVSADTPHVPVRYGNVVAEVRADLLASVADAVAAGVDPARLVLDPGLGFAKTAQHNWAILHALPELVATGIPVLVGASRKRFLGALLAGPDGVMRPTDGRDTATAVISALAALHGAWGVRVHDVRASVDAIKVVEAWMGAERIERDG

SMILES: Nc1ccc(C(=O)O)c(O)c1 [PAS, para-aminosalicylic acid]
- in vitro turnover assay with purified recombinant enzyme: purified recombinant enzymes confirmed that PAS was a kinetically and chemically competent substrate for M. tuberculosis FolP1
